According to the NIST ThermoML archive (doi:10.1021/je0341918):
± gives the expanded uncertainty stated by the source.

Experiment: molar heat capacity at constant pressure; xn = mol fraction of the nth substance listed
Conditions: 101.3 kPa, Liquid, Small sample (50 mg) DSC

OCCCCO [1,4-butanediol] + O
molar heat capacity at constant pressure [J/K/mol]
Conditions	x1 = 0.0218	x1 = 0.0478	x1 = 0.0789	x1 = 0.1175	x1 = 0.1665	x1 = 0.2305	x1 = 0.4441	x1 = 0.6426	x1 = 1
293.15 K	88.5 ± 1.8	97.3 ± 1.9	103.9 ± 2.1	111.8 ± 2.2	120.1 ± 2.4	129 ± 2.6	138.7 ± 2.8	169.3 ± 3.4	198.2 ± 4
303.15 K	89.3 ± 1.8	97.7 ± 2	104.8 ± 2.1	112.7 ± 2.3	121.3 ± 2.4	130.4 ± 2.6	140.8 ± 2.8	173.3 ± 3.5	203.6 ± 4.1
313.15 K	88.8 ± 1.8	98.1 ± 2	105.5 ± 2.1	113.8 ± 2.3	122.4 ± 2.4	131.8 ± 2.6	142.7 ± 2.9	177.1 ± 3.5	208.8 ± 4.2
323.15 K	88.9 ± 1.8	98.5 ± 2	106.2 ± 2.1	114.8 ± 2.3	123.5 ± 2.5	133.1 ± 2.7	144.6 ± 2.9	180.7 ± 3.6	214 ± 4.3
333.15 K	89.2 ± 1.8	99.1 ± 2	107.3 ± 2.1	116 ± 2.3	125 ± 2.5	135.1 ± 2.7	147.3 ± 2.9	185.7 ± 3.7	221.3 ± 4.4
343.15 K	89.1 ± 1.8	99.6 ± 2	108.3 ± 2.2	117.2 ± 2.3	126.5 ± 2.5	137 ± 2.7	149.9 ± 3	190.8 ± 3.8	228.6 ± 4.6
353.15 K	89.3 ± 1.8	100.2 ± 2	109.3 ± 2.2	118.5 ± 2.4	128.1 ± 2.6	139.2 ± 2.8	152.9 ± 3.1	196.4 ± 3.9	236.9 ± 4.7
